# Assay results: patent US20240423962A1, “FASCIN BINDING COMPOUNDS FOR SPINOGENESIS” (Spinogenix, Inc., priority 2018, published 2024)
# Experiments:
# [1] = test system: primary mouse cortical neurons; test: Synaptic density of primary mouse cortical neurons (synaptophysin P38 puncta), FIG. 6; format: cell-based; details: luM, 24 hours of treatment
# Protocol: The effect of the indicated compounds on the synaptic density of primary mouse cortical neurons was determined after 24 hours of treatment. FIG. 6. Primary mouse cortical neurons were treated on day 15 in vitro with fascin-inhibiting small molecules at luM, or with vehicle (DMSO). After 24 hours of treatment, neurons were fixed, immunolabeled for a protein component of synapses, the presynaptic vesicle protein, synaptophysin (P38), and then stained with the nuclear dye DAPI. Immunolabeled neurons were imaged on a Leica confocal microscope. The numbers of P38-immunopositive puncta were analyzed using FUI with the Squash plugin.
# fascin = fascin (Homo sapiens, UniProt Q16658); details: cited from earlier work
structure (smiles),measurement,setting,value
"O=C(Nc1nn(Cc2ccc(C(F)(F)F)cc2)c2ccccc12)c1ccco1 [compound 1, N-(1-(4-(trifluoromethyl)benzyl)-1H-indazol-3-yl)furan-2-carboxamide]",Spine density compared to comparative compounds,[1],increase spine density more than comparative compounds 1 and 7
same,Spine density compared to control,[1]; vs vehicle (DMSO),increase spine density compared to control
same,Fascin binding site,fascin; FIG. 5,bind to fascin at binding site 2
same,Effect of binding on actin-binding sites of fascin,fascin,opens actin-binding site 2 and closes actin-binding site 1
